# Measurements reported in article PMC4465889 (Biochemical and biophysical research communications, 2014).
# How the values were obtained:
# [1] = target: V113L mutant human CB2 receptor (Homo sapiens, UniProt P34972, V113L); assay type: binding
# [2] = target: L192A mutant human CB2 receptor (Homo sapiens, UniProt P34972, L192A); assay type: binding
# L192A mutant human CB2 receptor, sequence (P34972 whole entry L192A): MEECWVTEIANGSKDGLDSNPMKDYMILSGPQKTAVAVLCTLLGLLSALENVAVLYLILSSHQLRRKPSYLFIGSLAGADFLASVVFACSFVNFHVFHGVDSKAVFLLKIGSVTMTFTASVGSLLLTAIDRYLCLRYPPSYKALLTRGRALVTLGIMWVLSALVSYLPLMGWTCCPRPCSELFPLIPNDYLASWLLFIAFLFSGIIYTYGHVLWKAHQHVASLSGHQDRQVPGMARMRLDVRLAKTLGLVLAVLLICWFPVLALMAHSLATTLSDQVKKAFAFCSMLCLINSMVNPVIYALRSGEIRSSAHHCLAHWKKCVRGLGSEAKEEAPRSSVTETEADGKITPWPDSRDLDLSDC
# V113L mutant human CB2 receptor, sequence (P34972 whole entry V113L): as the sequence (P34972 whole entry L192A) above, with V113L, A192L counted along it
substance,measurement,setting,value
SR144528,Reduction of binding compared to wild type,[1]; V113L mutant vs wild type CB2,6 fold
same,Effect of substitution on CB2 binding affinity compared to the wild-type,"[1]; V113L mutant vs wild type CB2, in words",slight reduction
same,Reduction of binding compared to wild type,[2]; L192A mutant vs wild type CB2,5 fold
same,Effect of substitution on CB2 binding affinity compared to the wild-type,"[2]; L192A mutant vs wild type CB2, in words",slightly reduced
